Values of other authors in US20140356497A1, “Composition” (Natural Biotechnology SPRL, priority 2011, published 2014).

System: Red Delicious apples
Conditions: 0.25% calcium ascorbate; considered unsatisfactory

Question: With calcium ascorbate as the substance, how does the “time for which Red Delicious apples are preserved” value read?
Answer: ≤ 1 h
